Source: paper PMC4376724, “Differential Phenotypic and Functional Profiles of TcCA-2 -Specific Cytotoxic CD8^+ T Cells in the Asymptomatic versus Cardiac Phase in Chagasic Patients” (PLoS ONE, 2015)

Tested on: PBMC from HLA-A*02:01 Chagas disease patients and healthy donors
Test: Cytokine secretion test (Bio-Plex multiplex immunoassay) in PBMC supernatants
Assay type: cell-based, human
Conditions: 1 μM peptide, 30 h; for IFNγ / IL6 / TNFα: non-peptide control subtracted
Protocol: For the screening of the recognition of TcCA-2 epitopes by Chagas disease patients, 10 HLA-A*02:01 adult patients in the asymptomatic phase of the disease (IND) were enrolled. For cytotoxicity, functional activity determinations and phenotypic characterization another group of 19 HLA-A*02:01 adults Chagas disease patients and 9 healthy donors were analyzed. These patients were at the chronic stage of the disease and were considered to be at the asymptomatic phase (IND, n = 8) if there was no evidence of having cardiac or gastrointestinal disorders. Chronic Chagas cardiomyopathy patients (CCC, n = 11) were stratified into G1 to G3 stages following Kuschnir classification according to clinical criteria and radiological, electrocardiographic and echocardiography analyses. The number of patients was the one recommended by the Hospital Ethical Committee. […] The patients were enrolled in both studies (functional and phenotypic characterization, IND n = 6 and CCC n = 7) when the available number of purified PBMC (limited by the cellular number isolated from each subject) was enough for both analyses. Another four CCC patients had to be enrolled to perform the phenotypic analysis in order to reach statistical significance.
Cytokine secretion (IL-4, IL-10, IL-6, IFN-γ, TNF-α) was determined in the supernatants of PBMC from Chagas disease patients and healthy donors, after in vitro stimulation with 1 μM of each peptide for 30 h at 37°C in RPMI supplemented with 10% iFBS as explained before. The secretion profile was determined by using a bead-based multiplex immunoassay system (Bio-Plex, Bio-Rad), following the manufacturer's instructions. The response was considered positive if an increase in the secretion of cytokines was at least three folds higher than the secretion by un-stimulated cells (basal secretion level) and at least, 4 pg/mL for IL-4, 2 pg/mL for IL-10, 15 pg/mL for IL-6 and 5 pg/mL for IFN-γ and TNF-α. The positive control consisted of 50 ng/mL Phorbol 12 myristate 13-acetate (PMA) and 500 ng/mL ionomycin (Sigma). Cytokine levels were quantified in each sample by using the Bio-Plex Manager software 4.1 (Bio-Rad).
Functional analysis of the epitope-specific CD8^+ T cells was carried out by the determination of the secretion profile of IFN-γ, TNF-α, IL-4, IL10 and IL-6 cytokines. […] CD8^+ T cells from 2 out of 11 patients responded to stimulation with peptide TcCA-2_273-281 by secreting IL-6. […] There was no secretion of IL-4 and IL-10 in PBMC after stimulation with any one of the four TcCA-2 peptides (data not shown). IFN-γ, TNF-α and IL6 cytokines secretion levels were higher in patients at the asymptomatic phase of the disease than in Chagas patients with associated cardiomyopathy.

Sequence: AAAGDKLSL [TcCA-2_273-281]
- Patients whose cells responded by secreting IL-6 (PBMC of Chagas patients, same positivity criteria): 2 out of 11
- IFNγ (PBMC of patient CCC I 456): 0 pg/mL
- IL6 (PBMC of patient CCC I 456): 0 pg/mL
- TNFα (PBMC of patient CCC I 456): 0 pg/mL
- IFNγ (PBMC of patient CCC I 770): 0 pg/mL
- IL6 (PBMC of patient CCC I 770): 22 pg/mL
- TNFα (PBMC of patient CCC I 770): 4 pg/mL
- IFNγ (PBMC of patient CCC I 861): 2 pg/mL
- IL6 (PBMC of patient CCC I 861): -4 pg/mL
- TNFα (PBMC of patient CCC I 861): -2 pg/mL
- IFNγ (PBMC of patient CCC I 884): 0 pg/mL
- IL6 (PBMC of patient CCC I 884): 0 pg/mL
- TNFα (PBMC of patient CCC I 884): 0 pg/mL
- IFNγ (PBMC of patient CCC III 509): 0 pg/mL
- IL6 (PBMC of patient CCC III 509): -4 pg/mL
- TNFα (PBMC of patient CCC III 509): -5 pg/mL
- IFNγ (PBMC of patient IND 365): 1 pg/mL
- IL6 (PBMC of patient IND 365): 43 pg/mL
- TNFα (PBMC of patient IND 365): -6 pg/mL
- IFNγ (PBMC of patient IND 388): 2 pg/mL
- IL6 (PBMC of patient IND 388): 36 pg/mL
- TNFα (PBMC of patient IND 388): 7 pg/mL
- IFNγ (PBMC of patient IND 510): 0 pg/mL
- IL6 (PBMC of patient IND 510): 1 pg/mL
- TNFα (PBMC of patient IND 510): -1 pg/mL
- IFNγ (PBMC of patient IND 535): 0 pg/mL
- IL6 (PBMC of patient IND 535): -5 pg/mL
- TNFα (PBMC of patient IND 535): -1 pg/mL
- IFNγ (PBMC of patient IND 571): 0 pg/mL
- IL6 (PBMC of patient IND 571): 0 pg/mL
- TNFα (PBMC of patient IND 571): 0 pg/mL
- IFNγ (PBMC of patient IND 917): 7 pg/mL
- IL6 (PBMC of patient IND 917): 18 pg/mL
- TNFα (PBMC of patient IND 917): 11 pg/mL
- IFNγ (PBMC of subject HD 001): 6 pg/mL
- IL6 (PBMC of subject HD 001): 1 pg/mL
- TNFα (PBMC of subject HD 001): -8 pg/mL
- IFNγ (PBMC of subject HD 004): 0 pg/mL
- IL6 (PBMC of subject HD 004): -9 pg/mL
- TNFα (PBMC of subject HD 004): 0 pg/mL
- IFNγ (PBMC of subject HD 005): -19 pg/mL
- IL6 (PBMC of subject HD 005): -183 pg/mL
- TNFα (PBMC of subject HD 005): -11 pg/mL
- IFNγ (PBMC of subject HD 006): 6 pg/mL
- IL6 (PBMC of subject HD 006): 1 pg/mL
- TNFα (PBMC of subject HD 006): 2 pg/mL
- IFNγ (PBMC of subject HD 008): -1 pg/mL
- IL6 (PBMC of subject HD 008): 9 pg/mL
- TNFα (PBMC of subject HD 008): 0 pg/mL
- IFNγ (PBMC of subject HD 011): 0 pg/mL
- IL6 (PBMC of subject HD 011): -11 pg/mL
- TNFα (PBMC of subject HD 011): -8 pg/mL
- IFNγ (PBMC of subject HD 340): 0 pg/mL
- IL6 (PBMC of subject HD 340): 9 pg/mL
- TNFα (PBMC of subject HD 340): 4 pg/mL
- IFNγ (PBMC of subject HD 664): -3 pg/mL
- IL6 (PBMC of subject HD 664): 0 pg/mL
- TNFα (PBMC of subject HD 664): 0 pg/mL

Sequence: ALQVTNHRYL [TcCA-2_657-666]
- IFNγ (PBMC of patient CCC I 770): 0 pg/mL
- IL6 (PBMC of patient CCC I 770): 1 pg/mL
- TNFα (PBMC of patient CCC I 770): -6 pg/mL
- IFNγ (PBMC of patient CCC I 861): 0 pg/mL
- IL6 (PBMC of patient CCC I 861): -4 pg/mL
- TNFα (PBMC of patient CCC I 861): -2 pg/mL
- IFNγ (PBMC of patient CCC I 884): 0 pg/mL
- IL6 (PBMC of patient CCC I 884): 0 pg/mL
- TNFα (PBMC of patient CCC I 884): 0 pg/mL
- IFNγ (PBMC of patient CCC III 509): 0 pg/mL
- IL6 (PBMC of patient CCC III 509): -4 pg/mL
- TNFα (PBMC of patient CCC III 509): -5 pg/mL
- IFNγ (PBMC of patient IND 365): 2 pg/mL
- IL6 (PBMC of patient IND 365): 10 pg/mL
- TNFα (PBMC of patient IND 365): 14 pg/mL
- IFNγ (PBMC of patient IND 388): 2 pg/mL
- IL6 (PBMC of patient IND 388): 2 pg/mL
- TNFα (PBMC of patient IND 388): -5 pg/mL
- IFNγ (PBMC of patient IND 510): 0 pg/mL
- IL6 (PBMC of patient IND 510): -3 pg/mL
- TNFα (PBMC of patient IND 510): 1 pg/mL
- IFNγ (PBMC of patient IND 535): 0 pg/mL
- IL6 (PBMC of patient IND 535): -5 pg/mL
- TNFα (PBMC of patient IND 535): -2 pg/mL
- IFNγ (PBMC of patient IND 571): 1 pg/mL
- IL6 (PBMC of patient IND 571): 0 pg/mL
- TNFα (PBMC of patient IND 571): 0 pg/mL
- IFNγ (PBMC of patient IND 917): -1 pg/mL
- IL6 (PBMC of patient IND 917): -17 pg/mL
- TNFα (PBMC of patient IND 917): -17 pg/mL
- IFNγ (PBMC of subject HD 001): -2 pg/mL
- IL6 (PBMC of subject HD 001): 1 pg/mL
- TNFα (PBMC of subject HD 001): -6 pg/mL
- IFNγ (PBMC of subject HD 004): 4 pg/mL
- IL6 (PBMC of subject HD 004): -12 pg/mL
- TNFα (PBMC of subject HD 004): -1 pg/mL
- IFNγ (PBMC of subject HD 005): 0 pg/mL
- IL6 (PBMC of subject HD 005): -58 pg/mL
- TNFα (PBMC of subject HD 005): -4 pg/mL
- IFNγ (PBMC of subject HD 006): 3 pg/mL
- IL6 (PBMC of subject HD 006): -5 pg/mL
- TNFα (PBMC of subject HD 006): 1 pg/mL
- IFNγ (PBMC of subject HD 008): -3 pg/mL
- IL6 (PBMC of subject HD 008): 3 pg/mL
- TNFα (PBMC of subject HD 008): -21 pg/mL
- IFNγ (PBMC of subject HD 011): 0 pg/mL
- IL6 (PBMC of subject HD 011): -4 pg/mL
- TNFα (PBMC of subject HD 011): 0 pg/mL
- IFNγ (PBMC of subject HD 017): 0 pg/mL
- IL6 (PBMC of subject HD 017): 0 pg/mL
- TNFα (PBMC of subject HD 017): 0 pg/mL
- IFNγ (PBMC of subject HD 340): 1 pg/mL
- IL6 (PBMC of subject HD 340): 22 pg/mL
- TNFα (PBMC of subject HD 340): 8 pg/mL
- IFNγ (PBMC of subject HD 664): -3 pg/mL
- IL6 (PBMC of subject HD 664): 0 pg/mL
- TNFα (PBMC of subject HD 664): 0 pg/mL
